Results: patent EP1192131B1, “METHOD OF INHIBITING AMYLOID PROTEIN AGGREGATION AND IMAGING AMYLOID DEPOSITS USING ISOINDOLINE DERIVATIVES” (Warner-Lambert Company LLC, priority 1999, dated 2000)
Several values for one entry are separate records, joined by “and”; a condition that tells them apart may be missing. Equal values may be shown once. Read-outs that look alike come from different tables or passages of the source.

Assays:
Type in all cases: biochemical
Aβ(1-40) [1] = molecular target: T1, Aβ(1-40) (Homo sapiens, UniProt P05067); assay: BASSR (Beta-Amyloid Self-Seeding Radioassay), inhibition of self-seeded amyloid fibril growth; set-up: Soluble Aβ(1-40) peptide (Bachem, Torrance, CA); purchased Bachem, Torrance, CA; settings: 30 µM soluble Aβ (1-40) + 125I-labeled Aβ(1-40), 37°C, 3 to 5 hours, several values in a cell = repeat values, letter in parentheses = lot of compound (no letter = Lot P), (ppt), (v-shape) flags
T1 sequence (P05067 672-711): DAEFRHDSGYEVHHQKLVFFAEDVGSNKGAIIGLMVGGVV
Procedure: BASSR (Beta-Amyloid Self-Seeding Radioassay)
(§1) An assay for inhibitors of self-seeded amyloid fibril growth
Assay Buffer - 50 mM sodium phosphate, pH 7.5, 100 mM NaCl, 0.02% NaN3, 1 M urea (filter and store at 4°C)
Soluble Aβ(1-40) peptide (Bachem, Torrance, CA) - 2.2 mg/mL in deionized H2O (stored in aliquots at -20°C, keep on ice when thawed) will self-seed after 1 week storage. Typically, the solution should be stored until no lag phase is seen in the assay.
^125I-labeled Aβ (1-40) - 150K-350K cpm/µL in 100% acetonitrile -0.1% trifluoroacetic acid (TFA) -1% β-mercaptoethanol (aliquots stored at -20°C) ^125I-labeled Aβ(1-40) can be made in accordance with the procedure set forth by H. LeVine, III in Neurobiol. Aging, 16:755 (1995), which is hereby incorporated by reference, or this reagent may be purchased from Amersham, Arlington Heights, Illinois.
Final assay conditions: 30 µM soluble Aβ (1-40) in deionized water in assay buffer + 20-50K cpm ^125I-labeled Aβ(1-40) per assay. Compound to be tested is dissolved in dimethylsulfoxide (DMSO), typically 5-50 mM stock, such that the final concentration of DMSO is <1% v/v in the assay.
Assay: Reaction mixture for 50 assays (on ice) is comprised of 0.1-0.2 µL of ^125I-labeled A^125I-labeled Aβ(1-40) + 1 µL of soluble Aβ (1-40) + 13.5 µL assay buffer per assay. The following are the amounts of the components of the reaction mixture sufficient for 50 assay wells. 5-10 µL ^125I-labeled Aβ (1-40) dried down 675 µL assay buffer 50 µL soluble Aβ (1-40)
• 1) Prepare reaction mixture above by mixing components and storing on ice. • 2) Pipet 14.5 µL of reaction mixture into each of 50 wells on a polypropylene U-bottom 96-well microtiter plate on ice (Costar 3794). • 3) Add 1.7 µL, of diluted compound to be tested to each well in a column of eight, including solvent control. Serial 3-fold dilutions from 1 mM (100 µM final) in assay buffer -urea = 7 dilutions + zero. Each 96-well plate can therefore accommodate 11 samples + 1 Congo Red control (0.039-5 µM final in 2-fold steps). • 4) Seal the plate with aluminum film (Beckman 538619) and incubate for 10 minutes on ice. • 5) Raise the temperature to 37°C and incubate for 3 to 5 hours (depending on the lot of the peptide). • 6) Remove the aluminum film and add 200 µL/well of ice cold assay buffer with urea, collecting the radiolabeled fibrils by vacuum filtration through 0.2 µm pore size GVWP filters in 96-well plates (Millipore MAGV N22, Bedford, MA). Determine the radioactivity of the filters using standard methods well-known to those skilled in the art.

Aβ(1-40) [2] = molecular target: T1, Aβ(1-40); assay: BASST (Beta-Amyloid Self-seeding, ThioflavinT), inhibition of self-seeded amyloid fibril growth; set-up: 30 µM soluble Aβ (1-40) in deionized water in assay buffer; settings: 30 µM soluble Aβ (1-40), 37°C, 3 to 5 hours, thioflavin T fluorescence, letter in parentheses = lot of compound (no letter = Lot P)
Procedure: BASST (Beta-Amyloid Self-seeding, ThioflavinT)
as §1
Assay Buffer - 50 mM sodium phosphate, pH 7.5, 100 mM NaCl, 0.02% NaN3, 1 M urea (filter and store at 4°C).
Soluble Aβ (1-40) - 2.2 mg/mL in deionized H2O (store in aliquots at -20°C, keep on ice when thawed) will self-seed after 1 week storage. Typically, the solution should be stored until no lag phase is seen in the assay.
Final assay conditions: 30 µM soluble Aβ (1-40) in deionized water in assay buffer. Compound to be tested is dissolved in DMSO, typically 5-50 mM stock, such that the final concentration of DMSO is <1% v/v in the assay.
Assay: Reaction mixture for 50 assays (on ice) comprised of 1 µL of soluble Aβ (1-40) + 13.5 µL assay buffer per assay. The following are the amounts of the components of the reaction mixture that result in each of the 50 assay wells. 50 µL soluble Aβ (1-40) 675 µL assay buffer
• 1) Prepare the reaction mix above by mixing the components and storing on ice. • 2) Pipet 14.5 µL of reaction mixture into each of 50 wells of a polystyrene U-bottom 96-well microtiter plate (Coming 25881-96) on ice. • 3) Add 1.7 µL of diluted compound to be tested to each well in a column of eight, including solvent control. Serial 3-fold dilutions from 1 mM (100 µM final) in assay buffer -urea = 7 dilutions + zero. Each 96-well plate can therefore accommodate 11 samples + 1 Congo Red control (0.039-5 µM final in 2-fold steps). • 4) Seal the plate with aluminum film and incubate for 10 minutes on ice. • 5) Raise the temperature to 37°C and incubate for 3 to 5 hours (depends on the lot of the peptide). • 6) Remove the aluminum film and add 250 µL/well of 5 µM thioflavin T (ThT) [T-3516, Sigma-Aldrich] in 50 mM glycine-NaOH, pH 8.5. Read fluorescence on a plate reader (ex = 440 nm/20 nm; em = 485 nm/20 nm) within 5 minutes.

Aβ (1-42) = molecular target: T2, Aβ (1-42) (Homo sapiens, UniProt P05067); assay: BATYM assay, Aβ (1-42) aggregation, Thioflavin T fluorescence
T2 construct: Required Aβ (1-42)(California Peptide) was dried from its hexafluoroisopropanol (HFIP) stock solution; purchased California Peptide
T2 sequence (P05067 672-713): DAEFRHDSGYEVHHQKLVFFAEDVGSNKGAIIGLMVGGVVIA
Procedure: Required Aβ (1-42)(California Peptide) was dried from its hexafluoroisopropanol (HFIP) stock solution. The Aβ (1-42) was dissolved in dimethylsulfoxide (DMSO) and then mixed with phosphate buffered saline (PBS) (pH 7.4). The mixed Aβ (1-42) solution was filtered through a […] Omnipore membrane syringe filter (Millipore, Bedford, MA). The compound to be tested in DMSO (50 times concentrate) was put into each well (0.5 µL/well) of a 96-well plate. The Aβ (1-42) solution was added into each well (24.5 µL/well). The plate was centrifuged at 1,000 g for 5 minutes and incubated at 37°C for 1 day (Aβ 1-42; final concentration 100 µM).
After incubation Thioflavin T (ThT) (30 µM) solution in glycine-NaOH buffer (pH 8.5, 50 mM) was added into each well (250 µL/well), fluorescence was measured (ex. 440/20 nm; em 485/20 nm) using a fluorescence plate reader. The inhibitory activity was calculated as the reduction of fluorescence with the following formula: Inhibition (%) = {(F(Aβ)-F(Aβ+compound)}/{F(Aβ)-F (solvent+compound)} × 100 [formula]
The IC50s (concentration of test compound required to cause a 50% inhibition of aggregation) were calculated by a curve fitting program using the following equation. The data were obtained from two different experiments in triplicate. Inhibition (x) = 100-100/{1 + (x/IC50)^n }, [formula] x = concentration of tested compound (M), IC50 = (M), n = Hill coefficient.

Aβ (1-40) peptide = molecular target: T3, Aβ (1-40) peptide (Homo sapiens, UniProt P05067); assay: BAPA (Beta-Amyloid Peptide Aggregation, pH 6.0), filtration endpoint assay
T3 construct: 10 µL 0.5 mg/mL Aβ (1-40) peptide in 20% HFIP
T3 sequence (P05067 672-711): as the sequence (P05067 672-711) above
Procedure: BAPA (Beta-Amyloid Peptide Aggregation
This assay is used to provide a measure of inhibition by a compound against the aggregation behavior of the beta amyloid peptide.
The purpose of this assay is to provide a higher volume method of assaying the amount of beta amyloid aggregation using an endpoint assay based on filtration. In this assay, hexafluoroisopropanol (HFIP) is used to break down the initial amyloid peptide to a monomer state and use a concentration of 33 µM which is high enough so that aggregation will occur at pH 6.0 in several hours.
β-Amyloid Peptide Aggregation. pH 6 0 (BAPA)
In a 96-well plate (Costar 3794), we add 25 µL 50 mM Phosphate Buffer, pH 6.0, 10 µL 0.5 mg/mL Aβ (1-40) peptide in 20% HFIP + 0.1 µL/assay radioiodinated ^125I Aβ (1-40) [^125I Aβ(1-40)], and 1 µL of the compound to be tested starting at 50 mM with a concentration of DMSO <1%. Then, we incubate for 2 to 4 hours at room temperature. We stop the reaction with 200 µL of 50 mM phosphate buffer, pH 6.0, and filter it through a 0.2 µm 96-well filter plate (Millipore MAGU N22) We wash the filter plate with 100 µL of the same phosphate buffer. Aggregation was detected on a Microbeta counter after impregnating the filters with Meltilex (1450-441) and is corrected for background

[3] = read-out: BASST IC50 (converted)
[4] = Aβ 1-42 final concentration 100 µM, 37°C, 1 day, letter in parentheses = lot of compound (no letter = Lot P), read-out: BATYM IC50
[5] = read-out: BATYM IC50, Aβ 1-42 final concentration 100 µM, 37°C, 1 day, letter in parentheses = lot of compound (no letter = Lot P)
[6] = read-out: BAPA IC50; Aβ (1-40) 33 µM, pH 6.0, 2 to 4 hours at room temperature; letter in parentheses = lot of compound (no letter = Lot P)
[7] = Aβ (1-40) 33 µM, pH 6.0, 2 to 4 hours at room temperature; letter in parentheses = lot of compound (no letter = Lot P); read-out: BAPA IC50

IC50 (Aβ (1-42); [4])	Molecule	IC50 (Aβ(1-40) [2]; [3])	IC50 (Aβ(1-40) [2]; read-out: BASST IC50)	IC50 (Aβ (1-42); [5])	also measured
11.4 µM	O=C(O)c1cc([N+](=O)[O-])ccc1Nc1ccc2c(c1)CN(c1ccc(Cl)c(Cl)c1)C2 [Example 5, 2-[2-(3,4-Dichlorophenyl)-2,3-dihydro-1H-isoindol-5-ylamino]-5-nitro-benzoic acid]	3 µM	–	–	IC50 (Aβ(1-40) [1]; read-out: BASSR IC50 (converted)): 5 µM and 4.1 µM and 3 µM
–	O=C(O)c1cc([N+](=O)[O-])ccc1Nc1ccc2c(c1)CN(c1cccc(Cl)c1)C2 [Example 14, 2-[2-(3-Chloro-phenyl)-2,3-dihydro-1H-isoindol-5-ylamino]-5-nitro-benzoic acid]	–	0.8 µM and 1 µM	12.6 µM	IC50 (Aβ (1-40) peptide; [6]): > 100 µM
11.3 µM and 46.4 µM and 59.7 µM	COc1ccc(N2Cc3ccc(Nc4ccccc4C(=O)O)cc3C2)c(OC)c1OC [Example 1, 2-[2-(2,3,4-Trimethoxy-phenyl)-2,3-dihydro-1H-isoindol-5-ylamino]-benzoic acid]	2 µM and 1.6 µM and 3 µM (2×) and 15 µM (2×)	–	–	IC50 (Aβ (1-40) peptide; [7]): 72 µM
–	O=C(O)c1ccccc1Nc1ccc2c(c1)CN(c1ccccc1)C2 [Example 13, 2-(2-Phenyl-2,3-dihydro-1H-isoindol-5-ylamino)-benzoic acid]	–	–	90.2 µM and 60 µM and > 100 µM and 79.7 µM and 83 µM	IC50 (Aβ(1-40) [1]; read-out: BASSR IC50): > 100 µM and 52 µM and 60 µM
–	O=C(O)c1cc([N+](=O)[O-])ccc1Nc1ccc2c(c1)CN(c1cccc(Cl)c1)C2 [Example 11, 2-[2-(3-Chloro-phenyl)-2,3-dihydro-1H-isoindol-5-ylamino]-5-nitro-benzoic acid]	–	0.8 µM and 1 µM	12.6 µM	IC50 (Aβ (1-40) peptide; [6]): > 100 µM
–	O=C(O)c1cccnc1Nc1ccc2c(c1)CN(c1ccc(Cl)c(Cl)c1)C2 [Example 24, 2-[2-(3,4-Dichloro-phenyl)-2,3-dihydro-1H-isoindol-5-ylamino]-nicotinic acid]	–	0.3 µM	–	IC50 (Aβ(1-40) [1]; read-out: BASSR IC50): 18 µM

Molecule	IC50 (Aβ (1-42); [4])	IC50 (Aβ(1-40) [2]; [3])	IC50 (Aβ(1-40) [2]; read-out: BASST IC50)	IC50 (Aβ (1-42); [5])	also measured
4-Methoxy-5-nitro-2-[2-(3,4,5-trimethoxyphenyl)-2,3-dihydro-1H-isoindol-5-ylamino]benzoic acid [Example 3]	17.4 µM	3 µM and 2.1 µM	–	–	IC50 (Aβ (1-40) peptide; [7]): 64 µM
